Source: US8758782B2, “Excipient preservatives and pharmaceutical compositions comprised thereof” (Galderma Research & Development, priority 2007, dated 2014)

Tests used:
[1] = tested on: Staphylococcus aureus, reference ATCC 6538; test: Preservative Efficacy Test (PET), Staphylococcus aureus; type: cell-based; parameters: key to Gram+ bacterium, Staphylococcus aureus: −: No European pharmacopoeia criterion or USP criterion is met; +: for the coli: the USP criteria are met; ++: the European pharmacopoeia criteria A are met; conditions: additive in standard emulsion
Excerpt: (§1) A particular problem that must be solved by the invention is that of effectively protecting a pharmaceutical topical composition while at the same time meeting the criteria required by the European and U.S. pharmacopoeias. This is because, since the purpose of the pharmaceutical composition is to become a pharmaceutical product with a marketing authorization, it is imperative for the composition according to the invention to meet these criteria. In order to verify this point and to determine the antimicrobial action of the various mixtures of excipients according to the invention, a test protocol, known as the PET (Preservative Efficacy Test), exists. The PET comprises artificially inoculating the compositions with a known number of microorganisms, and then determining the decrease in the latter in the compositions tested, at given times. The protocol of this test is set up in order to abide by the recommendations of the European and U.S. pharmacopoeias. […] The mixture of excipients as preservatives, described herein, should therefore meet the criteria of these pharmacopoeias in the PET. This test comprises artificially contaminating aliquots of formulation by means of a calibrated inoculum of specific microorganisms and incubating the same at precise temperatures. Samples are taken from the contaminated aliquots at given time intervals in order to count the microorganisms. Bacteria: • Pseudomonas aeruginosa, reference ATCC 9027; NCIMB 8626; CIP 82.118. • Staphylococcus aureus, reference ATCC 6538; NCTC 10788; NCIMB 9518; CIP 4.83. Bacteria: • Escherichia coli, reference ATCC 8739. • Pseudomonas aeruginosa, reference ATCC 9027. • Staphylococcus aureus, reference ATCC 6538.

[2] = pH of the emulsion containing the additive; type: physicochemical; conditions: standard emulsion with 2% citric acid
[3] = tested on: Bacteria and fungi (Escherichia coli, Pseudomonas aeruginosa, Staphylococcus aureus, Candida albicans, Aspergillus niger); test: PET, overall compliance with European and U.S. pharmacopoeia criteria; type: cell-based; conditions: additive in standard emulsion
Excerpt: A particular problem that must be solved by the invention is that of effectively protecting a pharmaceutical topical composition while at the same time meeting the criteria required by the European and U.S. pharmacopoeias. This is because, since the purpose of the pharmaceutical composition is to become a pharmaceutical product with a marketing authorization, it is imperative for the composition according to the invention to meet these criteria. In order to verify this point and to determine the antimicrobial action of the various mixtures of excipients according to the invention, a test protocol, known as the PET (Preservative Efficacy Test), exists. The PET comprises artificially inoculating the compositions with a known number of microorganisms, and then determining the decrease in the latter in the compositions tested, at given times. The protocol of this test is set up in order to abide by the recommendations of the European and U.S. pharmacopoeias. The test and also the recommendations of the European and U.S. pharmacopoeias are described in Example 1 to follow. The mixture of excipients as preservatives, described herein, should therefore meet the criteria of these pharmacopoeias in the PET.
This test comprises artificially contaminating aliquots of formulation by means of a calibrated inoculum of specific microorganisms and incubating the same at precise temperatures. Samples are taken from the contaminated aliquots at given time intervals in order to count the microorganisms.
It also makes it obligatory to study the reductions in population of the microorganisms introduced into the formulation according to two acceptability criteria.
Since the A criteria are the most strict, it are […] generally required that they be met.
In justified cases, when the A criteria cannot be complied with, for example owing to an increase in the risk of adverse reactions, the B criteria, which are less drastic, apply.
NI (Non-Increase) signifies that there must not be an increase in the number of microorganisms.
It imposes logarithmic reductions in the population of microorganisms which are different than that of the European pharmacopoeia.

[4] = tested on: Candida albicans, reference ATCC 10231; test: Preservative Efficacy Test (PET), Candida albicans; type: cell-based; parameters: key to Yeast, Candida albicans: −: No European pharmacopoeia criterion or USP criterion is met; +: for the coli: the USP criteria are met; ++: the European pharmacopoeia criteria A are met; conditions: additive in standard emulsion
Excerpt: (§2) A particular problem that must be solved by the invention is that of effectively protecting a pharmaceutical topical composition while at the same time meeting the criteria required by the European and U.S. pharmacopoeias. This is because, since the purpose of the pharmaceutical composition is to become a pharmaceutical product with a marketing authorization, it is imperative for the composition according to the invention to meet these criteria. In order to verify this point and to determine the antimicrobial action of the various mixtures of excipients according to the invention, a test protocol, known as the PET (Preservative Efficacy Test), exists. The PET comprises artificially inoculating the compositions with a known number of microorganisms, and then determining the decrease in the latter in the compositions tested, at given times. The protocol of this test is set up in order to abide by the recommendations of the European and U.S. pharmacopoeias. […] The mixture of excipients as preservatives, described herein, should therefore meet the criteria of these pharmacopoeias in the PET. This test comprises artificially contaminating aliquots of formulation by means of a calibrated inoculum of specific microorganisms and incubating the same at precise temperatures. Samples are taken from the contaminated aliquots at given time intervals in order to count the microorganisms. Fungi: • Candida albicans, reference ATCC 10231; NCPF 3179; IP 48.72. • Aspergillus niger, reference ATCC 16404; IMI 149007; IP 1431.83. Fungi: • Candida albicans, reference ATCC 10231. • Aspergillus niger, reference ATCC 16404.

[5] = tested on: Pseudomonas aeruginosa, reference ATCC 9027; test: Preservative Efficacy Test (PET), Pseudomonas aeruginosa; type: cell-based; parameters: key to Gram− bacterium, Pseudomonas aeruginosa: −: No European pharmacopoeia criterion or USP criterion is met; +: for the coli: the USP criteria are met; ++: the European pharmacopoeia criteria A are met; conditions: additive in standard emulsion
Excerpt: as §1

[6] = tested on: Aspergillus niger, reference ATCC 16404; test: Preservative Efficacy Test (PET), Aspergillus niger; type: cell-based; parameters: key to Moulds, Aspergillus Niger: −: No European pharmacopoeia criterion or USP criterion is met; +: for the coli: the USP criteria are met; ++: the European pharmacopoeia criteria A are met; conditions: additive in standard emulsion at its given % (EDTA 0.15, citric acid 2, sodium ascorbate 2, tocopherol 0.05, BHT 1, propyl gallate 0.1, ascorbyl palmitate 1)
Excerpt: as §2

[7] = tested on: Escherichia coli, reference ATCC 8739; test: Preservative Efficacy Test (PET), Escherichia coli; type: cell-based; parameters: key to Gram− bacterium, Esoherichia coli: −: No European pharmacopoeia criterion or USP criterion is met; +: for the coli: the USP criteria are met; ++: the European pharmacopoeia criteria A are met; conditions: additive in standard emulsion
Excerpt: as §1, with “•” for “• Pseudomonas aeruginosa, reference ATCC 9027; NCIMB 8626; CIP 82.118. • Staphylococcus aureus, reference ATCC 6538; NCTC 10788; NCIMB 9518; CIP 4.83. Bacteria: •”

O=C(O)CC(O)(CC(=O)O)C(=O)O [Citric acid]
Gram+ bacterium, Staphylococcus aureus [1]: ++ | pH [2]: 2.04 | Efficacy on the microorganisms as a whole / spectrum of efficacy [3]: bactericidal | Action on Candida albicans [4]: inhibits | Yeast, Candida albicans [4]: ++ | Gram− bacterium, Pseudomonas aeruginosa [5]: ++ | Moulds, Aspergillus Niger [6]: − | Gram− bacterium, Esoherichia coli [7]: +
